Assay results reported in US20260048076A1, “METHODS FOR DECREASING OR INHIBITING HUMAN L1 RETROTRANSPOSON RNA AND COMPOSITIONS FOR USE THEREIN” (ALTOS LABS, INC., priority 2022, published 2026).
[FANA] = 2'-fluoro-arabino; d = 2'-deoxy (DNA)

Assays:
Assay type in all cases: cell-based, human
[1] = test system: WRN hMSCs; assay: Comparison of 3TC and L1 translation blocker with L1 RNA depletion in WRN hMSCs (senescence gene qPCR, immuno-FISH, SA-β-gal); conditions: 3TC 10 mM, translation inhibitor ASOs 20 nM
Procedure: (§1) Tail tip fibroblasts (TTFs) were isolated from WT and LAKI mice and cultured at 37° C. in Dulbecco's Modified Eagle Medium (DMEM) (Invitrogen) containing Gluta-MAX, non-essential amino acids, and 10% fetal bovine serum (FBS, Gibco). WT and HGPS human dermal fibroblast were obtained from Coriell Biobank (WT: AG06234, AG10108, AG09309, AG10803, AG03257. HGPS: AG06917, AG11498, AG10578, AG11572, AG06297. APS: AG041100 (LMNA E578V), AG00989 (LMNA R644C), AG00990 (LMNA T10I), AG09233 (unknown mutation). WRN: AG12798; AG24467; AG06300; AG00780; AG05229). For LINE-1 knockdown, cells were incubated with 1 μM FANA ASO dissolved in culture medium (61) every 4 days and collected after two passages for senescent marker expression or immunohistochemistry. 3TC (Sigma-Aldrich) treatments were performed at 10 mM as in De Cecco et al. (11). Translation inhibitor ASOs (miRCURY LNA, Qiagen) were used at a final concentration of 20 nM and transfected with RNAiMAX (Invitrogen, Thermo Fisher Scientific) following manufacturer instructions. […]
(§2) Cells were fixed with 4% formaldehyde in PBS at room temperature (RT) for 10 min. […] Z-stack 3D reconstruction, nuclei segmentation, and fluorescence signal quantification were performed using Imaris (v.8.4.1) using nuclei volume as a reference to normalize fluorescence signals. […]

[2] = test system: HGPS hMSCs; assay: Comparison of 3TC and L1 translation blocker with L1 RNA depletion in HGPS hMSCs (senescence gene qPCR, immuno-FISH, SA-β-gal); conditions: 3TC 10 mM, translation inhibitor ASOs 20 nM
Procedure: as §1, §2

[3] = test system: HGPS fibroblasts; assay: Quantitative mass spectrometry proteome analysis in HGPS fibroblasts
Procedure: (§3) Total protein extracts were prepared with RIPA buffer (50mMTris-cl pH 8.0, 5 mM EDTA, 150 mM Nacl, 15 mM Mgcl2, 1% NP-40, 1 mM PMSF and 1× Protease Inhibitor Cocktail (PIC)). Further, a sonication step was included: (30S ON, 30S OFF, 10 cycles with Bioruptor). Equal […] protein extracts were concentrated to […] volume, then diluted in 8M urea in 0.1M Tris-HCl, followed by protein digestion with trypsin, according to the FASP protocol(66). After an overnight digestion, the peptides were eluted from the filters with 25 mM ammonium bicarbonate buffer. The eluted peptides were processed in the desalting step by using Sep-Pag C18 Column (waters) based on the manufacture's instruction. Approximately 200 ng of peptide mixture per sample was analyzed using a timsTOF Pro 2 QTOF mass spectrometer coupled with a nanoElute liquid chromatography system (Bruker Daltonik GmbH, Germany). The sample was injected directly into a RP-C18 Aurora emitter column (75 μm i.d.×250 mm, 1.6 μm, 120 Å pore size) (Ion Opticks, Australia) using a one-column separation method. An 80-min gradient was established using mobile phase A (0.1% FA in H2O) and mobile phase B (0.1% FA in Acetonitrile): 2-25% B for 60 min, 25-37% for 10 min, ramping 37% to 95% in 5 min, and maintaining 95% B for 5 min. The column temperature was set at 50° C. and the flow rate at 250 nl/min. […]

[4] = test system: WRN fibroblasts; assay: Quantitative mass spectrometry proteome analysis in WRN fibroblasts
Procedure: as §3

| Molecule | anti-aging effect (senescence-associated gene expression, H3K9me3, SA-β-gal positive cells) [1] | anti-aging effect (senescence-associated gene expression, H3K9me3, SA-β-gal positive cells) [2] | protein differential expression (quantitative mass spectrometry) [3] | protein differential expression (quantitative mass spectrometry) [4] |
| --- | --- | --- | --- | --- |
| Nc1ccn([C@@H]2CS[C@H](CO)O2)c(=O)n1 [3TC] | less potent anti-aging effect compared to L1 RNA depletion | no effect | – | – |
| A*C*T* T*C*C CTT CTC GCT TC*A*T*T*T* (ACTTCCCTTCTCGCTTCATTT; sugars from the 5' end [FANA]5 d11 [FANA]5, backbone and methylation of C not given here; listed as Homo sapiens) [human L1 2′F-ANA ASO #1, L1-specific 2′F-ANA modified ASO used in all human cell experiments; * denotes 2′F-ANA modified nucleotides] | – | – | ameliorated the aged phenotype also at proteome global level | ameliorated the aged phenotype also at proteome global level |
